Where a name gives a salt, the structure may show the parent alone.
Tested on: mice
Assay: Neuropharmacological Assay (SmartCube): automated behavioral signature of compound-treated mice compared with a database of reference drug classes
Format: in vivo
Conditions: for AG / AN / CE / HL / MS / PS / SH / UK / AD / AP / AX: probability that activity matches this class of agents, 3.0 mg/kg i.p., 15 min before test
Excerpt: Neurosci. 2011 Sep. 9; 5: 103 (doi: 10.3389/fnins.2011.00103) (“Roberds”). As reported in Roberds, because psychiatric diseases generally result from disorders of cell-cell communication or circuitry, intact systems are useful in detecting improvement in disease-relevant endpoints. These endpoints are typically behavioral in nature, often requiring human observation and interpretation. To facilitate testing of multiple compounds for behavioral effects relevant to psychiatric disease, PsychoGenics, Inc. (Tarrytown, NY, “PGI”) developed SmartCube™ an automated system in which behaviors of compound-treated mice are captured by digital video and analyzed with computer algorithms. (D. Brunner et al. Drug Discov. Today 2002, 7:S107-S112). PGI Analytical Systems uses data from SmartCube™ to compare the behavioral signature of a test compound to a database of behavioral signatures obtained using a large set of diverse reference compounds. (The composition of the database as well as validation of the method is further described in Roberds). In this way, the neuropharmacological effects of a test compound can be predicted by similarity to major classes of compounds, such as antipsychotics, anxiolytics and antidepressants.
The SmartCube™ system produces an activity signature indicating the probability that the activity of the test compound at the administered dose matches a given class of neuropharmacological agents. (See, e.g., Roberds, FIGS. 2 and 3). The test compound is simultaneously compared against multiple classes of agents; thus, a separate probability is generated for each behavioral effect measured (e.g., anxiolytic activity, analgesic activity, etc.). In table 2 below, these probabilities are reported for each behavioral effect measured as described in Table 1 below.
Provided compounds were dissolved in a mixture of Pharmasolve™ (N-methyl-2-pyrrolidone), polyethylene glycol and propylene glycol, and were injected i.p. 15 min. before the behavioral test. For each compound, injections were administered at 3 different doses. For each behavioral effect measured, results for the 3.0 mg/kg dose are presented. The potency of many of the compounds in the table was also determined in the SmartCube™ system. Test compounds were routinely examined at dose levels of 0.3, 1, 3 and 10 mg per kg (mpk), although the dose range was increased or decreased, if necessary, to obtain a full dose response curve. A compound's minimal effective dose (MED) is a measure of the compound's potency. The MED was defined as the dose (in mpk) having 45% or more total activity in SmartCube. If only one dose was tested, that dose is shown in the MED column of Table 2 even though the dose is not known to be the MED.

[1] = dose having 45% or more total activity in SmartCube, i.p., if only one dose was tested, that dose is shown, hydrochloride

Row | Compound | MED (minimal effective dose) [1] [mpk] | AG | AN | CE | HL | MS | PS | SH | UK | AD (hydrochloride, 3 mg/kg) | AP (hydrochloride, 3 mg/kg) | AX (hydrochloride, 3 mg/kg) | AD | AP | UK (hydrochloride, 3 mg/kg) | CE (hydrochloride, 3 mg/kg) | SH (hydrochloride, 3 mg/kg) | minimal effective dose (Mus musculus, ip, dose having 45% or more total activity in SmartCube, i.p., if only one dose was tested, that dose is shown, read-out: MED (minimal effective dose)) [mg/kg] | PS (hydrochloride, 3 mg/kg) | AX
1 | CNC1CCc2csc(F)c2C1 (single isomer, unassigned) [Compound 73, 3-fluoro-N-methyl-4,5,6,7-tetrahydro-2-benzothiophen-5-amine hydrochloride] | 1 | ND (^ <4%) | ND (^ <4%) | ND (^ <4%) | ND (^ <4%) | ND (^ <4%) | ND (^ <4%) | ND (^ <4%) | ND (^ <4%) | ND (^ <4%) | ND (^ <4%) | ++++ (≥74%) |  |  |  |  |  |  |  | 
2 | CNC1CCc2csc(F)c2C1 (single isomer, unassigned) [Compound 74, 3-fluoro-N-methyl-4,5,6,7-tetrahydro-2-benzothiophen-5-amine hydrochloride] | 3 | ND (^ <4%) | ND (^ <4%) | ND (^ <4%) | ND (^ <4%) | ND (^ <4%) | ND (^ <4%) | ND (^ <4%) | ND (^ <4%) | + (≥4%) | ++++ (≥74%) | ND (^ <4%) |  |  |  |  |  |  |  | 
3 | CNC1CCc2c(csc2F)C1 (single isomer, unassigned) [Compound 75, 1-fluoro-N-methyl-4,5,6,7-tetrahydro-2-benzothiophen-5-amine hydrochloride] | 1 | ND (^ <4%) | ND (^ <4%) | ND (^ <4%) | ND (^ <4%) | ND (^ <4%) | ND (^ <4%) | ND (^ <4%) | ND (^ <4%) |  | ++++ (≥74%) | ND (^ <4%) | ND (^ <4%) |  |  |  |  |  |  | 
4 | CNC1CCc2c(csc2F)C1 (single isomer, unassigned) [Compound 76, 1-fluoro-N-methyl-4,5,6,7-tetrahydro-2-benzothiophen-5-amine hydrochloride] | 3 | ND (^ <4%) | ND (^ <4%) | ND (^ <4%) | ND (^ <4%) | ND (^ <4%) | ND (^ <4%) | ND (^ <4%) | ND (^ <4%) |  | ++ (≥24%) | ++ (≥24%) | ND (^ <4%) |  |  |  |  |  |  | 
5 | CNC1CCc2c(F)sc(F)c2C1 (single isomer, unassigned) [Compound 77, 1,3-difluoro-N-methyl-4,5,6,7-tetrahydro-2-benzothiophen-5-amine hydrochloride] | 0.3 | ND (^ <4%) | ND (^ <4%) | ND (^ <4%) | ND (^ <4%) | ND (^ <4%) | ND (^ <4%) | ND (^ <4%) |  | ++ (≥24%) |  | + (≥4%) |  | ++ (≥24%) | ND (^ <4%) |  |  |  |  | 
6 | CNC1CCc2c(F)sc(F)c2C1 (single isomer, unassigned) [Compound 78, 1,3-difluoro-N-methyl-4,5,6,7-tetrahydro-2-benzothiophen-5-amine hydrochloride] | 1 | ND (^ <4%) | ND (^ <4%) | ND (^ <4%) | ND (^ <4%) | ND (^ <4%) | ND (^ <4%) | ND (^ <4%) |  | ND (^ <4%) |  | ++ (≥24%) |  | ++ (≥24%) | + (≥4%) |  |  |  |  | 
7 | CNC1CCc2cc(F)sc2C1 (single isomer, unassigned) [Compound 80, 2-fluoro-N-methyl-4,5,6,7-tetrahydrobenzothiophen-6-amine hydrochloride] | 3 | ND (^ <4%) | ND (^ <4%) | ND (^ <4%) | ND (^ <4%) | ND (^ <4%) | ND (^ <4%) | ND (^ <4%) | ND (^ <4%) | ++ (≥24%) | + (≥4%) | + (≥4%) |  |  |  |  |  |  |  | 
8 | CNC1CCc2cc(F)sc2C1 (single isomer, unassigned) [Compound 81, 2-fluoro-N-methyl-4,5,6,7-tetrahydrobenzothiophen-6-amine hydrochloride] | 1 | ND (^ <4%) | ND (^ <4%) | ND (^ <4%) | ND (^ <4%) | ND (^ <4%) | ND (^ <4%) | ND (^ <4%) | ND (^ <4%) | ND (^ <4%) | ++++ (≥74%) | ND (^ <4%) |  |  |  |  |  |  |  | 
9 | CNC1CCc2c(F)csc2C1 (single isomer, unassigned) [Compound 83, 3-fluoro-N-methyl-4,5,6,7-tetrahydrobenzothiophen-6-amine hydrochloride] | 1 | ND (^ <4%) | ND (^ <4%) |  | ND (^ <4%) | ND (^ <4%) | ND (^ <4%) |  | ND (^ <4%) | ND (^ <4%) | +++ (≥49%) | + (≥4%) |  |  |  | + (≥4%) | ND (^ <4%) |  |  | 
10 | CNC1CCc2c(F)csc2C1 (single isomer, unassigned) [Compound 84, 3-fluoro-N-methyl-4,5,6,7-tetrahydrobenzothiophen-6-amine hydrochloride] | 0.1 | ND (^ <4%) | ND (^ <4%) |  | ND (^ <4%) | ND (^ <4%) | ND (^ <4%) |  | ND (^ <4%) | + (≥4%) | ND (^ <4%) | ND (^ <4%) |  |  |  | ND (^ <4%) | +++ (≥49%) |  |  | 
11 | CC1(N)CCc2ccsc2C1 (single isomer, unassigned) [Compound 111, 6-methyl-5,7-dihydro-4H-benzothiophen-6-amine hydrochloride] |  | ND (^ <4%) | ND (^ <4%) | ND (^ <4%) | ND (^ <4%) | ND (^ <4%) |  | ND (^ <4%) | ND (^ <4%) | ++ (≥24%) |  | ++ (≥24%) |  | ND (^ <4%) |  |  |  | 3 | + (≥4%) | 
12 | CC1(N)CCc2ccsc2C1 (single isomer, unassigned) [Compound 112, 6-methyl-5,7-dihydro-4H-benzothiophen-6-amine hydrochloride] | >3 | ND (^ <4%) | ND (^ <4%) | ND (^ <4%) | ND (^ <4%) | ND (^ <4%) |  | ND (^ <4%) | ND (^ <4%) | + (≥4%) |  | + (≥4%) |  | ND (^ <4%) |  |  |  |  | ND (^ <4%) | 
13 | CCc1scc2c1CCC(NC)C2 (single isomer, unassigned) [Compound 113, 1-ethyl-N-methyl-4,5,6,7-tetrahydro-2-benzothiophen-5-amine hydrochloride] | 0.3 | ND (^ <4%) | ND (^ <4%) | ND (^ <4%) | ND (^ <4%) | ND (^ <4%) | ND (^ <4%) | ND (^ <4%) | ND (^ <4%) | + (≥4%) | ++++ (≥74%) |  |  |  |  |  |  |  |  | ND (^ <4%)
14 | CCc1scc2c1CCC(NC)C2 (single isomer, unassigned) [Compound 114, 1-ethyl-N-methyl-4,5,6,7-tetrahydro-2-benzothiophen-5-amine hydrochloride] | 3 | ND (^ <4%) | ND (^ <4%) | ND (^ <4%) | ND (^ <4%) | ND (^ <4%) | ND (^ <4%) | ND (^ <4%) | ND (^ <4%) | +++ (≥49%) | + (≥4%) |  |  |  |  |  |  |  |  | ND (^ <4%)
